{"source": "patent US11738008B2", "about": "“N-methyl-D-aspartic acid receptor modulators” (Emory University, priority 2018, dated 2023)", "key": {"rat GluN1/GluN2C [1]": {"biological_target": "rat GluN1/GluN2C (Rattus norvegicus, UniProt Q00961)", "sequence (Q00961 20-1237, other chains not shown)": "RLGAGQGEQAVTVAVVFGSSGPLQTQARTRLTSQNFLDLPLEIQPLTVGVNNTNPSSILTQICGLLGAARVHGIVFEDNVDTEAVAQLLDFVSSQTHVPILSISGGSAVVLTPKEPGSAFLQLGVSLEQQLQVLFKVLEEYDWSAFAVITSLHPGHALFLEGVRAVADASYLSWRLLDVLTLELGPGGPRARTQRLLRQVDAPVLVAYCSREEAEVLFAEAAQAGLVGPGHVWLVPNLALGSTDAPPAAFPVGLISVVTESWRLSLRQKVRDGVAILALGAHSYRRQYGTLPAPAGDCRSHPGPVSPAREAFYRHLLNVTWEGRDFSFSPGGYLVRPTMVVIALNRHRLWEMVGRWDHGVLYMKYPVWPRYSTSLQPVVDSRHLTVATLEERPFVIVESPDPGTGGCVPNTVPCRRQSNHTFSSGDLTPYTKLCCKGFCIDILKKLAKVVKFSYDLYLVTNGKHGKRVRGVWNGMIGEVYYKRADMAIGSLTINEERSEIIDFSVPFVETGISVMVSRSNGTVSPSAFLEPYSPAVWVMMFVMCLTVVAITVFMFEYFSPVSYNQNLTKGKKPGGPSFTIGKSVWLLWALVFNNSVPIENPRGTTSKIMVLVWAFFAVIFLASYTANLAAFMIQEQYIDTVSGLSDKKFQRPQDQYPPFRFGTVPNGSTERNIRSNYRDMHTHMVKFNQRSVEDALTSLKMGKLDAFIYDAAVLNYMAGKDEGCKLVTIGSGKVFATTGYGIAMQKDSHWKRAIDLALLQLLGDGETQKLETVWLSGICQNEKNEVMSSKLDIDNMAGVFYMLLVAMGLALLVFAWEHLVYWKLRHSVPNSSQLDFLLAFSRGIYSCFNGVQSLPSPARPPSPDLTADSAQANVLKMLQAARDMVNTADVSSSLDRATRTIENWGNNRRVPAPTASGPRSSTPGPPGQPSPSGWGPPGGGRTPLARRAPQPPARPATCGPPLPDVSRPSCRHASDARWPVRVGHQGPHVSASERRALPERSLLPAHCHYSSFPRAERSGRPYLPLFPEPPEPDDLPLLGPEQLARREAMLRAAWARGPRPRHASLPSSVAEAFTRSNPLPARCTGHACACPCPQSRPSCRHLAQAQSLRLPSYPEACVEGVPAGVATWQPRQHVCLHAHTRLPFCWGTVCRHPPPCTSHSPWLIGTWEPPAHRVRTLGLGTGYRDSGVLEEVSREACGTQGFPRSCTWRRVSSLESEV", "assay": "Two-electrode voltage clamp recordings in Xenopus laevis oocytes, potentiation of GluN1/GluN2C", "format": "cell-based", "settings": "for GluN2C potentiation (NE class): 30 μM; for GluN2C Max %: maximal response, current without potentiator = 100%", "method": "(§1) Xenopus laevis oocytes were purchased unfertilized from Ecocyte (Austin, Tex.). The oocytes were injected with mRNA to express recombinant rat GluN1/GluN2A, GluN1/GluN2B, GluN1/GluN2C, and GluN1/GluN2D and two-electrode voltage clamp (TEVC) recordings were performed. Drs. S. Heinemann (Salk Institute), S. Nakanishi (Kyoto University), and P. Seeburg (University of Heidelberg) provided the cDNAs for rat GluN1-1a (GenBank accession numbers U11418 and U08261, referred to as GluN1 henceforth), GluN2A (D13211), GluN2B (U11419), GluN2C (M91563), and GluN2D (D13213). GluN2C and GluN2D were altered according to literature precedent. […] To prevent the current increase typically seen during experiments with oocytes expressing GluN1/GluN2A receptors, the oocytes were either injected with 20 nL of 100 mM K-BAPTA (potassium 1,2-bis(o-aminophenoxy)ethane-N,N,N,N-tetraacetic acid) or pretreated with 50 μM BAPTA-AM (1,2-bis(o-aminophenoxy)ethane-N,N,N,N-tetraacetic acid tetraacetoxymethyl ester) for 10 minutes."}, "rat GluN1/GluN2D [2]": {"biological_target": "rat GluN1/GluN2D (Rattus norvegicus, UniProt Q62645)", "sequence (Q62645 28-1323, other chains not shown)": "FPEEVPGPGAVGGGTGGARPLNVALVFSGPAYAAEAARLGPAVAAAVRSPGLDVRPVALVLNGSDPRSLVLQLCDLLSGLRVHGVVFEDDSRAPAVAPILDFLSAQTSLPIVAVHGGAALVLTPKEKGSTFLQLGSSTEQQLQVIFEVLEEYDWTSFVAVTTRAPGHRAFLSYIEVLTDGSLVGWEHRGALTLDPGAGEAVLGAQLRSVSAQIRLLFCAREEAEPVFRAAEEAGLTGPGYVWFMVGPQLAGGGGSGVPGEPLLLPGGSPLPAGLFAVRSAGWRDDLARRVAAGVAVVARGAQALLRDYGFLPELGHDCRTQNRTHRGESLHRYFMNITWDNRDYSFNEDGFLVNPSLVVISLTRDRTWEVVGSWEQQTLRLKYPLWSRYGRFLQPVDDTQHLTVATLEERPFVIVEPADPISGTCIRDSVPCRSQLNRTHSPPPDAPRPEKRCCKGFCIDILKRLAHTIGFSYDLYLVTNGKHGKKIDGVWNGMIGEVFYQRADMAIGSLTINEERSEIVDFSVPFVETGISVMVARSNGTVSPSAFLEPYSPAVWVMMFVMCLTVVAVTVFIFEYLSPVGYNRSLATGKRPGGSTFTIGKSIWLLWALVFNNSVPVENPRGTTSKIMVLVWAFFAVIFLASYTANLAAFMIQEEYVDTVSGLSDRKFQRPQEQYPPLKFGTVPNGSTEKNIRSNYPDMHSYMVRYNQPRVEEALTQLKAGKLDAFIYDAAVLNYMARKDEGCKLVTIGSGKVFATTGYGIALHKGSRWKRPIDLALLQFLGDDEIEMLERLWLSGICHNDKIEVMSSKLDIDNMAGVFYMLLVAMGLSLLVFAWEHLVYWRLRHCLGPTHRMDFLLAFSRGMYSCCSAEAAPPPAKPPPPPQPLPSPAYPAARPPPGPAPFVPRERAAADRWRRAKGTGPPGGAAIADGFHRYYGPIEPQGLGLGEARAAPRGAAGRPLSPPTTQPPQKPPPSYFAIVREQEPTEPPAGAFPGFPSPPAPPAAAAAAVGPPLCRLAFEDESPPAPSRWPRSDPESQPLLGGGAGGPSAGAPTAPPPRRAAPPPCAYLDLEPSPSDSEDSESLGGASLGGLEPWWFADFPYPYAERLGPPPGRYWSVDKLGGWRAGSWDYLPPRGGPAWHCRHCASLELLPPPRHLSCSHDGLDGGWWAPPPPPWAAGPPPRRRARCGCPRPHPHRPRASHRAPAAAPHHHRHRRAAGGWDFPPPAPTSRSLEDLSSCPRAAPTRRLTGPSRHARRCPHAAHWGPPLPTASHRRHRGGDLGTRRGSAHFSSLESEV", "assay": "Two-electrode voltage clamp recordings in Xenopus laevis oocytes, potentiation of GluN1/GluN2D", "format": "cell-based", "settings": "for GluN2D potentiation (NE class): 30 μM; for GluN2D Max %: maximal response, current without potentiator = 100%", "method": "as §1"}, "rat GluN1/GluN2C [3]": {"biological_target": "rat GluN1/GluN2C (Rattus norvegicus, UniProt P35439+Q00961)", "sequence (Q00961 20-1237, other chains not shown)": "as the sequence (Q00961 20-1237, other chains not shown) above", "assay": "Two-electrode voltage clamp recordings in Xenopus laevis oocytes, potentiation of GluN1/GluN2C", "format": "cell-based", "method": "as §1"}, "rat GluN1/GluN2D [4]": {"biological_target": "rat GluN1/GluN2D (Rattus norvegicus, UniProt P35439+Q62645)", "sequence (Q62645 28-1323, other chains not shown)": "as the sequence (Q62645 28-1323, other chains not shown) above", "assay": "Two-electrode voltage clamp recordings in Xenopus laevis oocytes, potentiation of GluN1/GluN2D", "format": "cell-based", "method": "as §1"}, "GluN2C/D": {"tested_on": "GluN2C/D", "settings": "Mullasseril et al. 2010; read-out: potency at GluN2C/D; cited from earlier work"}, "[5]": {"tested_on": "GluN2A/B, AMPAR, or kainate receptors", "settings": "previously described; cited from earlier work"}, "[6]": {"tested_on": "schizophrenia-like symptoms", "settings": "mice; Suryavanshi et al. 2014; cited from earlier work"}, "[7]": {"tested_on": "fear and extinction learning", "settings": "mice; Ogden et al. 2014; cited from earlier work"}, "[8]": {"settings": "nephelometer, oocyte recording solution"}}, "note": "Where two headings read alike, the source gives them in different places.", "data": [{"smiles": "COc1ccc(OCC2c3sc(C)nc3CCN2C(=O)c2cccc(Cl)c2)cc1", "note": "(centres unmarked) [1180-402, (3-Chlorophenyl)(4-((4-methoxyphenoxy)methyl)-2-methyl-6,7-dihydrothiazolo[5,4-c]pyridin-5(4H)-yl)methanone]", "values": [{"measurement": "GluN2C potentiation (NE class)", "setting": "rat GluN1/GluN2C [1]", "value": "NE (NE indicates less than 20% potentiation at 30 μM)"}, {"measurement": "GluN2D potentiation (NE class)", "setting": "rat GluN1/GluN2D [2]", "value": "NE (NE indicates less than 20% potentiation at 30 μM)"}]}, {"smiles": "COc1ccc(OCC2c3ccsc3CCN2C(=O)c2cccc(Cl)c2)cc1", "note": "(centres unmarked) [1180-401, (3-Chlorophenyl)(4-((4-methoxyphenoxy)methyl)-6,7-dihydrothieno[3,2-c]pyridin-5(4H)-yl)methanone]", "values": [{"measurement": "EC50", "setting": "rat GluN1/GluN2C [3]; read-out: GluN2C EC50", "value": 3.6, "unit": "µM"}, {"measurement": "GluN2C Max %", "setting": "rat GluN1/GluN2C [1]", "value": 320, "unit": "%"}, {"measurement": "EC50", "setting": "rat GluN1/GluN2D [4]; read-out: GluN2D EC50", "value": 4.7, "unit": "µM"}, {"measurement": "GluN2D Max %", "setting": "rat GluN1/GluN2D [2]", "value": 369, "unit": "%"}]}, {"smiles": "COc1ccc(OCC2c3sccc3CCN2C(=O)/C=C/C(F)(F)F)cc1", "note": "(centres unmarked) [1180-405, (E)-4,4,4-trifluoro-1-(7-((4-methoxyphenoxy)methyl)-4,7-dihydrothieno[2,3-c]pyridin-6(5H)-yl)but-2-en-1-one]", "values": [{"measurement": "EC50", "setting": "rat GluN1/GluN2C [3]; read-out: GluN2C EC50", "value": 13, "unit": "µM"}, {"measurement": "GluN2C Max %", "setting": "rat GluN1/GluN2C [1]", "value": 282, "unit": "%"}, {"measurement": "EC50", "setting": "rat GluN1/GluN2D [4]; read-out: GluN2D EC50", "value": 13, "unit": "µM"}, {"measurement": "GluN2D Max %", "setting": "rat GluN1/GluN2D [2]", "value": 317, "unit": "%"}]}, {"smiles": "COc1ccc(OC[C@H]2c3cccn3CCN2C(=O)c2cccc(C(F)(F)F)c2)cc1", "note": "[R-(+)-1180-450]", "values": [{"measurement": "GluN2C (max) (%)", "setting": "rat GluN1/GluN2C [1]", "value": 464, "unit": "%"}, {"measurement": "GluN2D (max) (%)", "setting": "rat GluN1/GluN2D [2]", "value": 542, "unit": "%"}]}, {"smiles": "COc1ccc(OCC2c3cc(OC)c(OC)cc3CCN2C(=O)c2cccc(Cl)c2)cc1", "note": "(centres unmarked) [CIQ]", "values": [{"measurement": "GluN2C (max) (%)", "setting": "rat GluN1/GluN2C [1]", "value": 233, "unit": "%"}, {"measurement": "GluN2D (max) (%)", "setting": "rat GluN1/GluN2D [2]", "value": 215, "unit": "%"}, {"measurement": "EC50", "setting": "GluN2C/D", "value": "5 to 10", "unit": "µM"}, {"measurement": "activity at GluN2A/B, AMPAR, or kainate receptors", "setting": "[5]", "value": "no activity"}, {"measurement": "effect on schizophrenia-like symptoms in animal models", "setting": "[6]", "value": "attenuate schizophrenia-like symptoms"}, {"measurement": "effect on fear and extinction learning in animal models", "setting": "[7]", "value": "facilitate the retention of fear and extinction learning"}]}, {"smiles": "COc1ccc(OCC2c3cnn(C)c3CCN2C(=S)c2cccc(Cl)c2)cc1", "note": "(centres unmarked) [1180-413, (3-Chlorophenyl)(4-((4-methoxyphenoxy)methyl)-1-methyl-1,4,6,7-tetrahydro-5H-pyrazolo[4,3-c]pyridin-5-yl)methanethione]", "values": [{"measurement": "GluN2C potentiation (NE class)", "setting": "rat GluN1/GluN2C [1]", "value": "NE (NE indicates less than 20% potentiation at 30 μM)"}, {"measurement": "GluN2D potentiation (NE class)", "setting": "rat GluN1/GluN2D [2]", "value": "NE (NE indicates less than 20% potentiation at 30 μM)"}]}, {"smiles": "COc1ccc(OCC2c3sccc3CCN2C(=O)c2cccc(Cl)c2)cc1", "note": "(centres unmarked) [1180-400, (3-Chlorophenyl)(7-((4-methoxyphenoxy)methyl)-4,7-dihydrothieno[2,3-c]pyridin-6(5H)-yl)methanone]", "values": [{"measurement": "EC50", "setting": "rat GluN1/GluN2C [3]; read-out: GluN2C EC50", "value": 3.8, "unit": "µM"}, {"measurement": "GluN2C Max %", "setting": "rat GluN1/GluN2C [1]", "value": 288, "unit": "%"}, {"measurement": "EC50", "setting": "rat GluN1/GluN2D [4]; read-out: GluN2D EC50", "value": 3.5, "unit": "µM"}, {"measurement": "GluN2D Max %", "setting": "rat GluN1/GluN2D [2]", "value": 391, "unit": "%"}]}, {"smiles": "COc1ccc(OCC2c3sccc3CCN2C(=O)c2ccc(Cl)s2)cc1", "note": "(centres unmarked) [1180-404, (5-Chlorothiophen-2-yl)(7-((4-methoxyphenoxy)methyl)-4,7-dihydrothieno[2,3-c]pyridin-6(5H)-yl)methanone]", "values": [{"measurement": "EC50", "setting": "rat GluN1/GluN2C [3]; read-out: GluN2C EC50", "value": 5.1, "unit": "µM"}, {"measurement": "GluN2C Max %", "setting": "rat GluN1/GluN2C [1]", "value": 269, "unit": "%"}, {"measurement": "EC50", "setting": "rat GluN1/GluN2D [4]; read-out: GluN2D EC50", "value": 7.4, "unit": "µM"}, {"measurement": "GluN2D Max %", "setting": "rat GluN1/GluN2D [2]", "value": 352, "unit": "%"}]}, {"smiles": "COc1ccc(OCC2c3cnsc3CCN2C(=O)c2cccc(Cl)c2)cc1", "note": "(centres unmarked) [1180-411, (3-Chlorophenyl)(4-((4-methoxyphenoxy)methyl)-6,7-dihydroisothiazolo[4,5-c]pyridin-5(4H)-yl)methanone]", "values": [{"measurement": "EC50", "setting": "rat GluN1/GluN2C [3]; read-out: GluN2C EC50", "value": 11, "unit": "µM"}, {"measurement": "GluN2C Max %", "setting": "rat GluN1/GluN2C [1]", "value": 194, "unit": "%"}, {"measurement": "EC50", "setting": "rat GluN1/GluN2D [4]; read-out: GluN2D EC50", "value": 15, "unit": "µM"}, {"measurement": "GluN2D Max %", "setting": "rat GluN1/GluN2D [2]", "value": 238, "unit": "%"}]}, {"smiles": "COc1ccc(OCC2c3occc3CCN2C(=O)c2cccc(Cl)c2)cc1", "note": "(centres unmarked) [1180-403, (3-Chlorophenyl)(7-((4-methoxyphenoxy)methyl)-4,7-dihydrofuro[2,3-c]pyridin-6(5H)-yl)methanone]", "values": [{"measurement": "EC50", "setting": "rat GluN1/GluN2C [3]; read-out: GluN2C EC50", "value": 7.4, "unit": "µM"}, {"measurement": "GluN2C Max %", "setting": "rat GluN1/GluN2C [1]", "value": 353, "unit": "%"}, {"measurement": "EC50", "setting": "rat GluN1/GluN2D [4]; read-out: GluN2D EC50", "value": 9.6, "unit": "µM"}, {"measurement": "GluN2D Max %", "setting": "rat GluN1/GluN2D [2]", "value": 527, "unit": "%"}]}, {"smiles": "COc1ccc(OCC2c3cnn(C)c3CCN2C(=O)c2cccc(Cl)c2)cc1", "note": "(centres unmarked) [1180-407, (3-Chlorophenyl)(4-((4-methoxyphenoxy)methyl)-1-methyl-1,4,6,7-tetrahydro-5H-pyrazolo[4,3-c]pyridin-5-yl)methanone]", "values": [{"measurement": "GluN2C response at 100 μM", "setting": "rat GluN1/GluN2C [1]; @ 100 μM", "value": 207, "unit": "% @ 100 μM"}, {"measurement": "GluN2D response at 100 μM", "setting": "rat GluN1/GluN2D [2]; @ 100 μM", "value": 216, "unit": "% @ 100 μM"}]}, {"smiles": "COc1ccc(OCC2c3ccsc3CCN2C(=S)c2cccc(Cl)c2)cc1", "note": "(centres unmarked) [1180-414, (3-Chlorophenyl)(4-((4-methoxyphenoxy)methyl)-6,7-dihydrothieno[3,2-c]pyridin-5(4H)-yl)methanethione]", "values": [{"measurement": "GluN2C potentiation (NE class)", "setting": "rat GluN1/GluN2C [1]", "value": "NE (NE indicates less than 20% potentiation at 30 μM)"}, {"measurement": "GluN2D potentiation (NE class)", "setting": "rat GluN1/GluN2D [2]", "value": "NE (NE indicates less than 20% potentiation at 30 μM)"}]}, {"smiles": "COc1ccc(OC[C@H]2c3cccn3CC(=O)N2Cc2cccc(C(F)(F)F)c2)cc1", "note": "[R-(+)-1180-447]", "values": [{"measurement": "GluN2C (max) (%)", "setting": "rat GluN1/GluN2C [1]", "value": 276, "unit": "%"}, {"measurement": "GluN2D (max) (%)", "setting": "rat GluN1/GluN2D [2]", "value": 332, "unit": "%"}]}, {"smiles": "COc1ccc(OCC2c3cccn3CC(=O)N2Cc2cccc(F)c2)cc1", "note": "(centres unmarked) [1180-453, 2-(3-fluorobenzyl)-1-((4-methoxyphenoxy)methyl)-1,2-dihydropyrrolo[1,2-a]pyrazin-3(4H)-one]", "values": [{"measurement": "GluN2C (max) (%)", "setting": "rat GluN1/GluN2C [1]", "value": "(348) %"}, {"measurement": "GluN2D (max) (%)", "setting": "rat GluN1/GluN2D [2]", "value": "(334) %"}, {"measurement": "Solubility", "setting": "[8]", "value": 74, "unit": "µM"}]}, {"smiles": "COc1ccc(OCC2c3cccn3CCN2C(=O)c2cccc(C(F)(F)F)c2)cc1", "note": "(racemic) [1180-450, (1-((4-methoxyphenoxy)methyl)-3,4-dihydropyrrolo[1,2-a]pyrazin-2(1H)-yl)(3-(trifluoromethyl)phenyl)methanone]", "values": [{"measurement": "EC50", "setting": "rat GluN1/GluN2C [3]; read-out: GluN2C pEC50 [95% CI] (converted)", "value": 1.58, "unit": "µM"}, {"measurement": "GluN2C (max) (%)", "setting": "rat GluN1/GluN2C [1]", "value": "(381) %"}, {"measurement": "EC50", "setting": "rat GluN1/GluN2D [4]; read-out: GluN2D pEC50 [95% CI] (converted)", "value": 2, "unit": "µM"}, {"measurement": "GluN2D (max) (%)", "setting": "rat GluN1/GluN2D [2]", "value": "(288) %"}, {"measurement": "Solubility", "setting": "[8]", "value": 58, "unit": "µM"}]}]}
